The text below walks through data of ChEMBL document CHEMBL4229328, “Quest for Novel Chemical Entities through Incorporation of Silicon in Drug Scaffolds” (J Med Chem, 2018).

In brackets after ≈: the same amount, converted by molar mass.

One may read the IC50 as the midpoint of a concentration-inhibition curve. The term Ki denotes the equilibrium dissociation constant of an inhibitor or competing ligand from its target. Low values mean tighter binding, high ones weaker binding. The EC50 is the concentration that produces a half-maximal response. The logD is lipophilicity at a set pH, counting ionised and neutral species. Higher therefore signals higher lipophilicity.

One series has as its system MCF7. In words: Cytotoxicity against human MCF7 cells after 24 hrs. As to conditions: MCF7, 24 h. It is filed as functional, cell-based.
The subject of another series is Staphylococcus aureus. The class given is functional.
Another series deals with Escherichia coli. The class given is functional, C3000 ATCC 15597.
The test system of a further series is Enterococcus faecalis. The class given is functional, ATCC 19433.
The test system of the next series is Pseudomonas aeruginosa. The class given is functional, ATCC 10145.
Another series has as its system HT-29. The series can be described thus: Cytotoxicity against human HT-29 cells after 24 hrs. The class given is functional, cell-based. The note with it: HT-29, 24 h.
In series [1] the target is Sigma non-opioid intracellular receptor 1 (Cavia porcellus, UniProt Q60492). In words: Displacement of [3H]-(+)pentazocine from sigma-1 receptor in guinea pig brain membranes after 180 mins by scintillation counting method. The class given is cell membranes, Membrane. On the technique in general: In a radioligand displacement assay an active substance lowers the binding of a labelled ligand.

For series [2], the target named is T1, Sigma intracellular receptor 2 (Rattus norvegicus, UniProt Q5U3Y7).
T1 sequence (Q5U3Y7 whole entry): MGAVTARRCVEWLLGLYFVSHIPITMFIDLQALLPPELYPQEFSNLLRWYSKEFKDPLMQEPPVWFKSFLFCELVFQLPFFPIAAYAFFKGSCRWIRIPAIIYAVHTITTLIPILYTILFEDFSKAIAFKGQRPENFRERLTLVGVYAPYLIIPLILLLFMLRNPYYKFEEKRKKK
In words: Displacement of [3H]-DTG from sigma-2 receptor in rat liver membranes after 180 mins by scintillation counting method. It is filed as cell membranes, Membrane.

A short description of series [3]: Selectivity ratio of Ki for sigma-2 receptor in rat liver membranes to Ki for sigma-1 receptor in guinea pig brain membranes. The class given is cell membranes.
Another series concerns the target Chymotrypsinogen A (Bos taurus, UniProt P00766). In words: Inhibition of bovine alpha-chymotrypsin using succinyl Ala-Ala-Pro-Phe-p-nitroanilide as substrate after 1 hr by Dixon plot analysis.
Series [4] addresses Angiotensin-converting enzyme (Homo sapiens, UniProt P12821). In words: Inhibition of human ACE using Hip-His-Leu-OH as substrate after 1 hr by fluorimetric method.
Series [5] deals with Hydroxycarboxylic acid receptor 2 (Rattus norvegicus, UniProt Q80Z39). In words: Agonist activity at rat GPR109A expressed in T-REx-CHO cells assessed as inhibition of forskolin-stimulated cAMP accumulation preincubated for 30 mins followed by forskolin stimulation and measured after 20 mins by TR-FRET assay. It is filed as functional, cell-based.
Series [6] is described as follows: Octanol-water distribution co-efficient, log D of the compound at pH 7.4. It is filed as physicochemical.
The next series deals with T2, Protein Gpr81 (Rattus norvegicus, UniProt G3V906).
T2 sequence (G3V906 whole entry): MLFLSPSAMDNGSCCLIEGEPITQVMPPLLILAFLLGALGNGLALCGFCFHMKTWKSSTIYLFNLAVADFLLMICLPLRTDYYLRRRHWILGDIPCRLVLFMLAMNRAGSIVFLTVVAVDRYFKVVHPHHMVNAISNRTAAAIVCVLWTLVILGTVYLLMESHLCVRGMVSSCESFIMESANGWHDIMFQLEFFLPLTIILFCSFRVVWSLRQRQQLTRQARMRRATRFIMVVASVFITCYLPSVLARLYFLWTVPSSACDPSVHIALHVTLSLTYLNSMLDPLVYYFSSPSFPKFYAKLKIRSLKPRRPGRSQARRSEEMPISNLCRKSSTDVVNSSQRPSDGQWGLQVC
The series can be described thus: Agonist activity at rat GPR81 expressed in T-REx-CHO cells assessed as inhibition of forskolin-stimulated cAMP accumulation preincubated for 30 mins followed by forskolin stimulation and measured after 20 mins by TR-FRET assay. The class given is cell-based. On the technique in general: Changes in cAMP serve as a functional read-out for many G protein-coupled receptors.

Series [7] addresses E3 ubiquitin-protein ligase XIAP (Homo sapiens, UniProt P98170, C202A/C213G). The series can be described thus: Inhibition of N-terminal His-tagged XIAP BIR2-3 domain (125 to 356 residues) C202A/C213G mutant (unknown origin) using fluorescein labeled SMAC peptide as substrate after 60 mins by HTRF assay. (In general: TR-FRET usually uses a lanthanide donor and a delayed reading to cut background.)

In series [8] the target is E3 ubiquitin-protein ligase XIAP (Homo sapiens, UniProt P98170). In words: Inhibition of N-terminal His-tagged XIAP BIR3 domain (241 to 356 residues) (unknown origin) using fluorescein labeled SMAC peptide as substrate after 60 mins by TR-FRET assay.
The target in series [9] is Sodium-dependent dopamine transporter (Homo sapiens, UniProt Q01959). In words: Inhibition of human DAT expressed in CHOK1 cells assessed as decrease in [3H]-dopamine reuptake after 10 mins by scintillation counting method. The class given is cell-based.
The target in series [10] is Sodium-dependent serotonin transporter (Homo sapiens, UniProt P31645). The class given is cell-based, HEK293.
Series [11] has as its target Sodium-dependent noradrenaline transporter (Homo sapiens, UniProt P23975). The series can be described thus: Inhibition of human NET expressed in MDCK cells assessed as decrease in [3H]-noradrenaline reuptake after 10 mins by scintillation counting method. The class given is cell-based.
The target of another series is Histone deacetylase 1 (Homo sapiens, UniProt Q13547). In words: Inhibition of human recombinant HDAC1 using Ac-Leu-Gly-Lys(Ac)-AMC as substrate preincubated for 30 mins followed by substrate addition and measured after 15 to 30 mins.
For a further series, the target named is Histone deacetylase 2 (Homo sapiens, UniProt Q92769).
Sequence of Histone deacetylase 2 (Q92769 whole entry): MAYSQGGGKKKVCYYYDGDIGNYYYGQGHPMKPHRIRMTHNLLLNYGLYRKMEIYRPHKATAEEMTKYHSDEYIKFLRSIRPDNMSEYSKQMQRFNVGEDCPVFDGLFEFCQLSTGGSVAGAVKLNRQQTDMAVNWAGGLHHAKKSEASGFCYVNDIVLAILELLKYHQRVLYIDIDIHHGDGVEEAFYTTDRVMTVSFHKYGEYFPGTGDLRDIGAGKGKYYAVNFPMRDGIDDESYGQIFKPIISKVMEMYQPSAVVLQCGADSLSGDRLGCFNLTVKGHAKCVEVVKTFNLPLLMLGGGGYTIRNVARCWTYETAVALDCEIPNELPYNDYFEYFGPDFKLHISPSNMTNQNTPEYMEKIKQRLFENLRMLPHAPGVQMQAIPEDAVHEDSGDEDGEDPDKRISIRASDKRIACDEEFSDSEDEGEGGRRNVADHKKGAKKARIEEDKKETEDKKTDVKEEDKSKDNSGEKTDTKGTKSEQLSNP

Sequence of Hydroxycarboxylic acid receptor 2 (Q80Z39 whole entry): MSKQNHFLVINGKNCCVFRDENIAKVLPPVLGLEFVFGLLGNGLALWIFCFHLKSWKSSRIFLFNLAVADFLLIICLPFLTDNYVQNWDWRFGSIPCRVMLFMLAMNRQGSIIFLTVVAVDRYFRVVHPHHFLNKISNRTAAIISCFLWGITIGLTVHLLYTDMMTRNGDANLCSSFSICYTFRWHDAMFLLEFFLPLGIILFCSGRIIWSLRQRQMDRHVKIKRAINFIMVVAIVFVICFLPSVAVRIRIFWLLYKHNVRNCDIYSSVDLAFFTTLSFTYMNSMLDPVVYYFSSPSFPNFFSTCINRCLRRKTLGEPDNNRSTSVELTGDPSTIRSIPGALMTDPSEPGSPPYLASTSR
Sequence of Sigma non-opioid intracellular receptor 1 (Q60492 whole entry): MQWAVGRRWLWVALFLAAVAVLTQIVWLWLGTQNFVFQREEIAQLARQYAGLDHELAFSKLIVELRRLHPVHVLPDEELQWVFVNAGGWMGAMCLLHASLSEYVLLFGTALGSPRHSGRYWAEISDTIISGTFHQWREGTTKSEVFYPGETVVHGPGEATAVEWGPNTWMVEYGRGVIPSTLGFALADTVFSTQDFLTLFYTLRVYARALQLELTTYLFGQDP
Sequence of Sodium-dependent serotonin transporter (P31645 whole entry): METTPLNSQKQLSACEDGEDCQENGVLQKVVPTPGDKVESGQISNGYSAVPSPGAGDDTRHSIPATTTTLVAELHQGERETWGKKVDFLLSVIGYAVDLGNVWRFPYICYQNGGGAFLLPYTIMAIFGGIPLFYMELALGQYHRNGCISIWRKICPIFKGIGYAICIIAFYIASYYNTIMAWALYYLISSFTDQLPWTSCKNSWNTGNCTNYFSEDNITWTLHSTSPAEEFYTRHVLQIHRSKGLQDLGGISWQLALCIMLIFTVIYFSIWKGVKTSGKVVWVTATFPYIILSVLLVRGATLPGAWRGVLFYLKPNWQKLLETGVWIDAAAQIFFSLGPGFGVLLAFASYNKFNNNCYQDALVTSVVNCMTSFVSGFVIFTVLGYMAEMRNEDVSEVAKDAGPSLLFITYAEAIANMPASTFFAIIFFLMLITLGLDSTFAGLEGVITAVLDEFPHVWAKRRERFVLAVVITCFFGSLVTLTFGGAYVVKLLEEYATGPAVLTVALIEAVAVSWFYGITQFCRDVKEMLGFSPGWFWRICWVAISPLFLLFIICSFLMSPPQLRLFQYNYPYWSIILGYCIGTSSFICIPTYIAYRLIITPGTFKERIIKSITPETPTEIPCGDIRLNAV
Sequence of Histone deacetylase 1 (Q13547 whole entry): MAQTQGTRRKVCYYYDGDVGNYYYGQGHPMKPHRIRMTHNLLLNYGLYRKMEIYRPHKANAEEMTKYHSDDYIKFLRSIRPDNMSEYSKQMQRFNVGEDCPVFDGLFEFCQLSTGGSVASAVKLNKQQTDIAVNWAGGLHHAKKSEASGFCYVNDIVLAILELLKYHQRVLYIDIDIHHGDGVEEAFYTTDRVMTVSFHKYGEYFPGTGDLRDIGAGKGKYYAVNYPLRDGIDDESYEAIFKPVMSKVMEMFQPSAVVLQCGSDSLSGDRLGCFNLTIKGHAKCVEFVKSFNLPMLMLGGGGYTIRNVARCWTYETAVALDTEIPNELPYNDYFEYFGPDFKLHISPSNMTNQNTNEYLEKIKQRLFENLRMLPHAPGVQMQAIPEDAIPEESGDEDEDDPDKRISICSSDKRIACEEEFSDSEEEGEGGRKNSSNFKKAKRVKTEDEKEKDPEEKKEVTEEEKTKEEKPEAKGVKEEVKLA
Sequence of Sodium-dependent dopamine transporter (Q01959 whole entry): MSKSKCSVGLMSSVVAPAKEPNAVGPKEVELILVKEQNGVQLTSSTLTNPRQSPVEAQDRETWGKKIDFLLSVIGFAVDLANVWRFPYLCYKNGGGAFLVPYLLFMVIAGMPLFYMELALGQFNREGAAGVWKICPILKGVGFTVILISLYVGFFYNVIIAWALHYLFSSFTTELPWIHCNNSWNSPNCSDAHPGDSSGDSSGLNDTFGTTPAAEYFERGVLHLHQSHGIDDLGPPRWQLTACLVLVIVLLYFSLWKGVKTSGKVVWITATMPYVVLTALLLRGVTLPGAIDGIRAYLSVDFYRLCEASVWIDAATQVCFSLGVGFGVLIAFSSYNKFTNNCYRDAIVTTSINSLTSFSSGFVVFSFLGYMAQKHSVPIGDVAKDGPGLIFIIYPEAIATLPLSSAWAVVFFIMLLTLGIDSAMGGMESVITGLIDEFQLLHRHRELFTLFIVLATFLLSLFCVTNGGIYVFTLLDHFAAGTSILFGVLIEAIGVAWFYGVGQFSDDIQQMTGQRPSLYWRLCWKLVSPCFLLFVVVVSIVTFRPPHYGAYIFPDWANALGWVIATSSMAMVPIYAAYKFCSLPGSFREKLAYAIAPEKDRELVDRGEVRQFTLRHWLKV
Sequence of E3 ubiquitin-protein ligase XIAP (Homo sapiens, UniProt P98170) (P98170 whole entry, the tested form may be a part): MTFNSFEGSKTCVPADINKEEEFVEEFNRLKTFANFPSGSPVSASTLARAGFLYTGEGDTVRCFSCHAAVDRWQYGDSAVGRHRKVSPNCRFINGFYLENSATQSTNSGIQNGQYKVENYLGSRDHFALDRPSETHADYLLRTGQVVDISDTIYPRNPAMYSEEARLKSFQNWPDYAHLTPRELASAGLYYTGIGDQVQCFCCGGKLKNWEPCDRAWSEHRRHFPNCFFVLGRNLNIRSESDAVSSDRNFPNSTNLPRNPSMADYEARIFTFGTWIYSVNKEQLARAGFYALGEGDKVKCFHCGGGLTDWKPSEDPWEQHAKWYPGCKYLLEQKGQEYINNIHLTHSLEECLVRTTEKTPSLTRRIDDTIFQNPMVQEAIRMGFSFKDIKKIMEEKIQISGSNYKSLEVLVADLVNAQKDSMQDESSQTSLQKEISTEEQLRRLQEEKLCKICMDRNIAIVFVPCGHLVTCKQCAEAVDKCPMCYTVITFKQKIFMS
Sequence of E3 ubiquitin-protein ligase XIAP (Homo sapiens, UniProt P98170, C202A/C213G) (P98170 whole entry C202A/C213G, the tested form may be a part): as the sequence (P98170 whole entry, the tested form may be a part) above, with C202A, C213G counted along it
Sequence of Sodium-dependent noradrenaline transporter (P23975 whole entry): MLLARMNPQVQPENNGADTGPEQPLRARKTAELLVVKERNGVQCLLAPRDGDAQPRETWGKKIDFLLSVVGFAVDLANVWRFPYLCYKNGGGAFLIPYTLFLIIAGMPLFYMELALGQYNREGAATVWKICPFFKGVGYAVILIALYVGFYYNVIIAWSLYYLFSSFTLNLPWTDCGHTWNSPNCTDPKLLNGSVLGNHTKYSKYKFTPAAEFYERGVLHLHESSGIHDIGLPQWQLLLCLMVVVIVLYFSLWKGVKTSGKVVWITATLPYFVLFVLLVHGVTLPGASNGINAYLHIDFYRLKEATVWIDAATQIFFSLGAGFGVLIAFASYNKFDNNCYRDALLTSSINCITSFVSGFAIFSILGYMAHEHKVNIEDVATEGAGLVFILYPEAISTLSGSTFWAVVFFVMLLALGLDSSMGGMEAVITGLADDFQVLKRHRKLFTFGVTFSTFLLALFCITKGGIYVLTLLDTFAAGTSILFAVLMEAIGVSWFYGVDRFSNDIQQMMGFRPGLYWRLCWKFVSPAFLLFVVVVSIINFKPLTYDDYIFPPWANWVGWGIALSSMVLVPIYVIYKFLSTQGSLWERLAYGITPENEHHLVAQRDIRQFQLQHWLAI

In the series on MCF7, `COC(=O)/C(=N/NC(=O)c1ccc(CO[Si](C)(C)C(C)(C)C)o1)c1ccccc1` showed an IC50 of 13.3 µg/mL (≈ 31.9 µM).

Regarding `CC(C)(C)O` [TERT-BUTANOL], the MLC was found to be 10.61% in the series on Staphylococcus aureus, 13.54% in the series on Escherichia coli, 13.33% with Enterococcus faecalis and 9.79% in the series on Pseudomonas aeruginosa.

For the molecule `CC(C)OC(=O)/C(=N/NC(=O)c1ccc(CO[Si](C)(C)C(C)(C)C)o1)c1ccccc1`, the IC50 is 6.4 µg/mL (≈ 14.4 µM) in the series on HT-29 and 3.6 µg/mL (≈ 8.1 µM) with MCF7.

In the case of `c1ccc(CCN2CC[Si]3(CCCc4ccccc43)CC2)cc1`, the values for the inhibition constant (Ki) in series [1] and in [2] were 2.9 nM and 39 nM, respectively.

With `C=C[Si](C)(C)O`, the MLC with Staphylococcus aureus is 1.04%; with Escherichia coli it was 1.23%; with Enterococcus faecalis, 1.32%; with Pseudomonas aeruginosa, 1%.

As for `c1ccc(CN2CC[Si]3(CCCc4ccccc43)CC2)cc1`, the Ki was 1.1 nM in series [1] and 243 nM in [2]. In [3], the Ratio Ki was found to be 221.

Regarding `CCOC(=O)/C(=N/NC(=O)c1ccc(CO[Si](C)(C)C(C)(C)C)o1)c1ccccc1`, the IC50 in the series with HT-29 was 8.6 µg/mL (≈ 20 µM); in the series on MCF7 it was 13.3 µg/mL (≈ 30.9 µM).

For the molecule `C[C@H](C[Si](O)(O)[C@H](Cc1ccccc1)NC(=O)[C@@H]1CCCN1)C(N)=O`, at Chymotrypsinogen A, the Ki turned out to be 107 nM.

Take `C[C@H](CS)C(=O)N1C[Si](C)(C)C[C@H]1C(=O)O`: the midpoint of inhibition in series [4], the IC50, lay at 43 nM.

Take `CCOc1cc(Cl)c(C(=O)NC(=O)Nc2nc3c(s2)C[Si](C)(c2ccc(OC)cc2)CC3)cc1N1CCOCC1` (centres undefined): the values for the EC50 (in [5]; on Protein Gpr81) were 1200 nM and 1000 nM, respectively. In [6], the logD worked out at 4.8.

Turning to `C[Si](C)(O)c1ccccc1`, the MLC with Staphylococcus aureus stood at 0.26%; in the series with Escherichia coli, 0.27%; in the series with Enterococcus faecalis it was 0.42%; with Pseudomonas aeruginosa, 0.35%.

Take `C=CC(C)(C)O`: the MLC is reported as 4.37% in the series on Staphylococcus aureus, 5.23% with Escherichia coli, 5.63% in the series on Enterococcus faecalis and 3.67% in the series on Pseudomonas aeruginosa.

Take `CCOc1cc(Cl)c(C(=O)NC(=O)Nc2nc3c(s2)C[Si](C)(c2c(OC)cccc2OC)CC3)cc1N1CCOCC1` (centres undefined): the figures for the EC50 (in series [5]; at Protein Gpr81) were 1300 nM and 1200 nM, respectively. Further, the logD in series [6] worked out at 4.6.

Consider `CC(C)CCN1CCC2(CCCc3ccccc32)CC1`, for which the values for the Ki in series [1] and in [2] were 1.8 nM and 5.5 nM, respectively.

Take `c1ccc(CN2CCC3(CCCc4ccccc43)CC2)cc1`: the Ki in series [1] is 2 nM; in series [2], 44 nM.

As for `CN[C@@H](C)C(=O)N[C@@H](Cc1ccc(C#CC(=O)N[C@H]2C[C@@H](C(=O)N[C@@H]3CCCc4ccccc43)N(C(=O)[C@@H](NC(=O)[C@H](C)NC)C(C)(C)C)C2)cc1)C(=O)N1C[Si](C)(C)C[C@H]1C(=O)N[C@@H]1CCCc2ccccc21`, the IC50 came out at 4 nM in [7] and 3 nM in series [8].

As to `CCOc1cc(Cl)c(C(=O)NC(=O)Nc2nc3c(s2)CCCC3)cc1N1CCOCC1`, the EC50 came out at 2100 nM in [5] and 240 nM on Protein Gpr81. Also, the logD in [6] was found to be 4.2.

Regarding `c1ccc(CCN2CCC3(CCCc4ccccc43)CC2)cc1`, the Ki in [1] amounted to 8 nM; in series [2] it was 34 nM.

Consider `CC[Si](C)(C)O`, for which the MLC in the series with Staphylococcus aureus worked out at 0.8%; with Escherichia coli, 1.04%; in the series on Enterococcus faecalis it was 1.14%; in the series with Pseudomonas aeruginosa, 0.87%.

As for `COc1ccc(CN2CCC3(CCCc4ccccc43)CC2)cc1`, the Ki in series [1] was 3.8 nM; in series [2] it was 206 nM.

For the molecule `COc1ccc(C(CN(C)C)[Si]2(O)CCCC2)cc1` (racemic), the figures for the IC50 in series [9], in series [10] and in [11] were 707 nM, 904 nM and 275 nM, respectively.

Take `C[Si](O)(O)CCCCCCC(=O)Nc1ccccc1`: the IC50 on Histone deacetylase 1 was 2700 nM; on Histone deacetylase 2 it was 6300 nM.

Turning to `CCC(C)(C)O` [AMYLENE HYDRATE], the MLC was found to be 4.17% in the series with Staphylococcus aureus, 5.09% in the series on Escherichia coli, 5.67% in the series on Enterococcus faecalis and 3.96% with Pseudomonas aeruginosa.

For `CC(C)CCN1CC[Si]2(CCCc3ccccc32)CC1`, the figures for the inhibition constant Ki in series [1] and in series [2] were 0.3 nM and 19 nM, respectively. In series [3], the Ratio Ki was determined as 63.

As to `COc1ccc(CN2CC[Si]3(CCCc4ccccc43)CC2)cc1`, the Ki worked out at 2.7 nM in series [1] and 460 nM in series [2].

For the molecule `CC(C)(O)c1ccccc1`, the MLC was found to be 0.78% in the series with Staphylococcus aureus, 0.96% in the series with Escherichia coli, 0.93% with Enterococcus faecalis and 0.71% in the series on Pseudomonas aeruginosa.
